# Measured values from patent US5994563A, “Arylmethylphosphonic acid derivatives useful in treating bone wasting diseases” (Ortho Pharmaceutical Corporation, priority 1999, dated 1999).
# Where two headings read alike, the source gives them in different places.
# How the values were obtained:
# [1] = test system: human TE85 osteoblast-line cells; experiment: Osteoblast Cell Proliferation (3H-thymidine incorporation); assay type: cell-based; details: 24 h, read-out: Osteoblast Cell Prolif % X Control; for activity at 100 µM: concentration of drug 100 μM
# From the text: The action of select compounds to stimulate osteoblast growth can be measured in culture by assuming the rate of DNA synthesis is proportional to the rate of ^3 H-thymidine incorporation into DNA. Only cells undergoing mitosis will synthesize new DNA and thus only these cells will incorporate the radiolabelled DNA-specific thymidine. The stimulation of the proliferation and differentiation of bone-forming cells, osteoblasts, is a prerequisite for an increase in bone formation and bone mass. The ability of agents to increase osteoblast proliferation and differentiation can be predicted (reference) by their action on cultured osteoblast-line cells in vitro. In this test human TE85 osteoblast-line cells (100,000) were plated on 24 well plates in DMEM containing 5% fetal calf serum for 48 hours. After removal of the media, 0.3 mL of serum-free media containing 0.25% BSA was added to each well. After 24 hours, the treatments were added to the conditioned media for an additional 24 hours. Tritiated thymidine (0.6uCi) was added for the last two hours. After rinsing the cells with Dulbeccos PBS, the cells were released from the plate by trypsinizing with 0.25 mL trypsin (0.25%) for 5-10 min. An equal aliquot of 25% TCA was added and the cell lysate allowd to stand for 15 minutes at 4° C. The lysate was centrifuged for 10 minutes, the supernatant removed, and the pellet washed with 0.2 mL of cold 80% ethanol. After a second centrifugation, the pellet was suspended in 0.1 mL 0.1% Triton X-1 00. The pellet was then sonicated to remove all of the material from the sides of the tube. This material was placed into a scintillation vial. An additional 0.08 mL of the Triton was used to rinse the tube before placing into the vial. These mbined samples were quantitated by scintillation spectrometry.
# [2] = biological target: human osteoblastic (TE85) tyrosinephosphate phosphatase; assay type: biochemical; details: for IC50: read-out: TF85 IC50
# CD45 [3] = biological target: T1, CD45 (Homo sapiens, UniProt P08575); experiment: biochemical
# T1 sequence (P08575 26-1306): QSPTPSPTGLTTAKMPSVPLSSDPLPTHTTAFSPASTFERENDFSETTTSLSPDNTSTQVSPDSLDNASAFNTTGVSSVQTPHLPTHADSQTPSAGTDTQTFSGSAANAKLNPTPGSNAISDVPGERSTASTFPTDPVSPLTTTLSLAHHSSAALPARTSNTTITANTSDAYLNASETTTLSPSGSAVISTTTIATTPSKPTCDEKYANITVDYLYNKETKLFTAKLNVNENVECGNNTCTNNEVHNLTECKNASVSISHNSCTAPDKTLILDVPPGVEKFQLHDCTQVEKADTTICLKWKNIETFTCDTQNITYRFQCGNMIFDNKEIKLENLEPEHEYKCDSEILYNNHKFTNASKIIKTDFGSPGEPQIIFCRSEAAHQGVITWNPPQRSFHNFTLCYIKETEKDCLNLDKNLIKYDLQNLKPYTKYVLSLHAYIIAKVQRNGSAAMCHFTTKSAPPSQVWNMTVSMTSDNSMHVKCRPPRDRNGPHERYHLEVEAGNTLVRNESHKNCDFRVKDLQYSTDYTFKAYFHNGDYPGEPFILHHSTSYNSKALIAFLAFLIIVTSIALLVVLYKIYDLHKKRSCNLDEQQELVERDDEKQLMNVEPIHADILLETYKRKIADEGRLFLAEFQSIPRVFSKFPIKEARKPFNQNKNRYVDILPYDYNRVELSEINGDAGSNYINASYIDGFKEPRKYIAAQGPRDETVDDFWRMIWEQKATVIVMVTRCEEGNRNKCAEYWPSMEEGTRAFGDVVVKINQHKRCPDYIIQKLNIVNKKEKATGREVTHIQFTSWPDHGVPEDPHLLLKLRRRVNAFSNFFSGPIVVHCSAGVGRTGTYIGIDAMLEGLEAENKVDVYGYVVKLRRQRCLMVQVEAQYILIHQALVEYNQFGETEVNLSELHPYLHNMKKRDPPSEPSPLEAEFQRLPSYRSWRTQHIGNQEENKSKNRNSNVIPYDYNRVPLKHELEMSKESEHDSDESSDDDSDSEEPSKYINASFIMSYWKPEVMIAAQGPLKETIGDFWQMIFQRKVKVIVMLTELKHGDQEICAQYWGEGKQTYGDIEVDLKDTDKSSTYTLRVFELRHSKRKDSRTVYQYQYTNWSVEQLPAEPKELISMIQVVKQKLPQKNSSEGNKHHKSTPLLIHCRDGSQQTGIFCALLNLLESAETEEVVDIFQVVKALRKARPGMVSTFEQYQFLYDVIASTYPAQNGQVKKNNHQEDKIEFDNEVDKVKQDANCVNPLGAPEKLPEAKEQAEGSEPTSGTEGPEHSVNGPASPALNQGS
# CD45 [4] = biological target: T1, CD45; details: read-out: IC50 (CD45)
SMILES,IC50 [2],other results
"O=[N+]([O-])c1ccc(Sc2cccc(C(F)(F)F)c2)c(C(O)P(=O)(O)O)c1 (centres unmarked) [Example 20, [2-(3-Trifluoromethyl)phenylthio-5-nitro]phenylhydroxymethylphosphonic acid]",2.4 µM,activity at 100 µM [1]: 139%
"CCCCCCSc1ccc([N+](=O)[O-])cc1C(O)P(=O)(O)O (centres unmarked) [Example 38, [2-(1-N-hexanyl)thio-5-nitro]phenylhydroxy-methylphosphonic acid]",1 µM,
"O=[N+]([O-])c1ccc(SCc2ccccc2)c(C(O)P(=O)(O)O)c1 (centres unmarked) [Example 28, (2-Benzylthio-5-nitro)phenylhydroxymethylphosphonic acid]",6.3 µM,activity at 100 µM [1]: 111%; IC50 (CD45 [3]): 6 µM
"O=[N+]([O-])c1ccc(C(O)P(=O)(O)O)s1 (centres unmarked) [Example 43, 5-Nitro-2-thiophenehydroxymethylphosphonic acid]",1 µM,
"O=[N+]([O-])c1ccc(Oc2ccccc2)c(C(O)P(=O)(O)O)c1 (centres unmarked) [Example 12, (2-Phenoxy-5-nitro)phenylhydroxymethylphosphonic acid]",18 µM,activity at 100 µM [1]: 112%; IC50 (CD45 [3]): 14 µM
"Cc1ccc(CSc2ccc([N+](=O)[O-])cc2C(O)P(=O)(O)O)cc1 (centres unmarked) [Example 31, [2-(4-Methyl)benzylthio-5-nitro]phenylhydroxymethylphosphonic acid]",0.82 µM,activity at 30 µM ([1]; concentration of drug 30 μM): 159%
"Cc1ccccc1CSc1ccc([N+](=O)[O-])cc1C(O)P(=O)(O)O (centres unmarked) [Example 29, [2-(2-Methyl)benzylthio-5-nitro]phenylhydroxymethyl phosphonic acid]",9.4 µM,
"CCCCCCCCCCSc1ccc([N+](=O)[O-])cc1C(O)P(=O)(O)O (centres unmarked) [Example 36, [2-(1-N-decyl)thio-5-nitro]phenylhydroxymethylphosphonic acid]",1 µM,
"COc1ccccc1Sc1ccc([N+](=O)[O-])cc1C(O)P(=O)(O)O (centres unmarked) [Example 24, [2-(2-Methoxyphenylthio)-5-nitro]phenylhydroxymethylphosphonic acid]",23 µM,
"O=[N+]([O-])c1cc(C(O)P(=O)(O)O)ccc1OCc1ccc(Cl)c(Cl)c1 (centres unmarked) [Example 56, [3-Nitro-4-(3,4-dichlorobenzyloxy)]phenylhydroxymethylphosphonic acid]",30 µM,
"O=[N+]([O-])c1ccc(Oc2cccnc2)c(C(O)P(=O)(O)O)c1 (centres unmarked) [Example 15, [2-(3-Pyridyl)oxy-5-nitro]phenylhydroxymethyl-phosphonic acid]",33 µM,
"O=[N+]([O-])c1ccc(Cl)c(C(O)P(=O)(O)O)c1 (centres unmarked) [Example 2, (2-Chloro-5-nitro)phenylhydroxymethylphosphonic acid]",35 µM,"IC50 (CD45 [4]; enzyme from Jurkat cell (JEG-6) membranes, pH 6.0, 90 minutes at 37° C.): 20 µM"
"O=[N+]([O-])c1ccc(SCCCc2ccccc2)c(C(O)P(=O)(O)O)c1 (centres unmarked) [Example 34, [2-(3-Phenylpropyl)thio-5-nitro]phenylhydroxy-methyl phosphonic acid]",0.45 µM,activity at 100 µM [1]: 127%
"Cc1ccc(C(O)P(=O)(O)O)cc1[N+](=O)[O-] (centres unmarked) [Example 52, (3-Nitro-4-methyl)phenylhydroxymethyphosphonic acid]",30 µM,
"O=[N+]([O-])c1ccc(Sc2ccccn2)c(C(O)P(=O)(O)O)c1 (centres unmarked) [Example 22, [2-(2-Pyridyl)thio-5-nitro]phenylhydroxymethyl-phosphonic acid]",14 µM,IC50 (CD45 [4]; pH 6): 1 µM
"Cc1cccc(CSc2ccc([N+](=O)[O-])cc2C(O)P(=O)(O)O)c1 (centres unmarked) [Example 30, [2-(3-Methyl)benzylthio-5-nitro]phenylhydroxymethyl phosphonic acid]",4.4 µM,
"Cc1ccc(CCSc2ccc([N+](=O)[O-])cc2C(O)P(=O)(O)O)cc1 (centres unmarked) [Example 32, [2-(4-Methylphenylethylthio)-5-nitro]phenyl-hydroxymethyl phosphonic acid]",,"TF85 % @ 300 μM ([2]; te85 cell extract, 15 min): 73%"
"Cc1ccc(Oc2ccc([N+](=O)[O-])cc2C(O)P(=O)(O)O)cc1 (centres unmarked) [Example 14, [2-(4-Methyl)phenoxy-5-nitro]phenylhydroxymethyl phosphonic acid]",,"TF85 % @ 300 μM ([2]; te85 cell extract, 15 min): 90%"
"O=[N+]([O-])c1ccc(-c2ccccc2)c(C(O)P(=O)(O)O)c1 (centres unmarked) [Example 59, (2-Phenyl-5-nitro) phenylhydroxymethylphosphonic acid]",10 µM,
"O=Cc1ccc(OC(=O)c2ccccc2)c([N+](=O)[O-])c1 [Example 50, 3-Nitro-4-benzoyloxybenzaldehyde]",17 µM,
"O=[N+]([O-])c1ccc(O)c(C(O)P(=O)(O)O)c1 (centres unmarked) [Example 7, (2-Hydroxy-5-nitro)phenylhydroxymethylphosphonic acid]",30 µM,
"O=[N+]([O-])c1ccc(Sc2ccc(Cl)cc2)c(C(O)P(=O)(O)O)c1 (centres unmarked) [Example 19, [2-(4-Chlorophenylthio)-5-nitro]phenylhydroxymethylphosphonic acid]",,"TF85 % @ 300 μM ([2]; te85 cell extract, 15 min): 95%; IC50 (CD45 [4]; pH 6): 28 µM"
"O=[N+]([O-])c1ccc(SC2CCCCC2)c(C(O)P(=O)(O)O)c1 (centres unmarked) [Example 26, (2-Cyclohexylthio-5-nitro)phenylhydroxymethylphosphonic acid]",5.8 µM,activity at 100 µM [1]: 138%; IC50 (CD45 [4]; pH 6): 1.2 µM
"O=C(c1cc([N+](=O)[O-])ccc1Cl)P(=O)(O)O [Example 58, (2-Chloro-5-nitro)phenyloxomethylphosphonic acid]",5 µM,
"O=[N+]([O-])c1cc(C(O)P(=O)(O)O)cs1 (centres unmarked) [Example 40, 2-Nitro-4-thienylhydroxymethylphosphosphonic acid]",,"TF85 % @ 300 μM ([2]; te85 cell extract, 15 min): 79%; IC50 (CD45 [4]; pH 6): 38 µM"
"O=[N+]([O-])c1ccc(Sc2ccccc2)c(C(O)P(=O)(O)O)c1 (centres unmarked) [Example 17, (2-Phenylthio-5-nitro)phenylhydroxymethylphosphonic acid]",28 µM,activity at 100 µM [1]: 119%
"O=[N+]([O-])c1cc(C(O)P(=O)(O)O)ccc1Sc1ccc(Br)cc1 (centres unmarked) [Example 54, [3-Nitro-4-(4-bromophenylthio)]phenylhydroxymethylphosphonic acid]",,"TF85 % @ 30 μM ([2]; te85 cell extract, 15 min): 75%"
